This is an account of results in patent US20060199214A1, “Incorporation of modified nucleotides by archaeon DNA polymerases and related methods” (priority 1999, published 2006).

Assay [1] deals with Thermo Sequenase™ DNA polymerase. Kind of assay: Titration assay of chain terminator incorporation by Thermo Sequenase. The settings on record: FIG. 9. The class given is biochemical. As for the experimental part: Samples were then heated at 72° C. for 3 minutes and separated on a QuickPoint DNA sequencing gel (NOVEX, San Diego, Calif.) run at 1200 volts. The gel was fixed by soaking in 10% acetic acid/10% ethanol, dried, and polymerization products visualized by autoradiography.
In a related experiment dye-acyclo-CTP incorporation by the analogous […] variant was evaluated.
(§1) The 2X cocktail was split in half and 9° N™ (exo-)/A485L DNA polymerase or Thermo Sequenase™ was added to a final concentration of 0.04 U/μl. […] Reactions were thermal cycled as follows: • 94° C. 5 minutes • 25 cycles at: • 94° C. 30 seconds • 55° C. 30 seconds • 72° C. 30 seconds • 72° C. 7 minutes

For assay [2], the target named is human DNA polymerase alpha (Homo sapiens, UniProt P09884). The settings on record: Reid, et al.; cited from earlier work.
Assay [3] addresses T1, 9° N™ (exo-)/A485L DNA polymerase (Thermococcus sp., UniProt Q56366, A485L/D141A/E143A).
T1 construct: made in house
The class given is biochemical, Thermococcus sp. 9° N-7. On the procedure:
as §1

Assay [4] concerns the target herpes virus type 2 (HSV-2) DNA polymerase (Human herpesvirus 2, UniProt P89453). The settings on record: Reid, et al.; cited from earlier work.
Assay [5] has as its target human cytomegalovirus (HCMV) DNA polymerase (Human cytomegalovirus, UniProt P08546). The settings on record: Reid, et al.; cited from earlier work.
In assay [6] the target is T2, Vent® (exo-)/A488L DNA polymerase (Thermococcus litoralis, UniProt P30317, A488L/D141A/DEL1082-1471/DEL495-1032/E143A).
T2 construct: made in house
T2 sequence (P30317 other isoform, or with tags, fused parts or gaps D141A/E143A/A488L/DEL495-1032/DEL1082-1471): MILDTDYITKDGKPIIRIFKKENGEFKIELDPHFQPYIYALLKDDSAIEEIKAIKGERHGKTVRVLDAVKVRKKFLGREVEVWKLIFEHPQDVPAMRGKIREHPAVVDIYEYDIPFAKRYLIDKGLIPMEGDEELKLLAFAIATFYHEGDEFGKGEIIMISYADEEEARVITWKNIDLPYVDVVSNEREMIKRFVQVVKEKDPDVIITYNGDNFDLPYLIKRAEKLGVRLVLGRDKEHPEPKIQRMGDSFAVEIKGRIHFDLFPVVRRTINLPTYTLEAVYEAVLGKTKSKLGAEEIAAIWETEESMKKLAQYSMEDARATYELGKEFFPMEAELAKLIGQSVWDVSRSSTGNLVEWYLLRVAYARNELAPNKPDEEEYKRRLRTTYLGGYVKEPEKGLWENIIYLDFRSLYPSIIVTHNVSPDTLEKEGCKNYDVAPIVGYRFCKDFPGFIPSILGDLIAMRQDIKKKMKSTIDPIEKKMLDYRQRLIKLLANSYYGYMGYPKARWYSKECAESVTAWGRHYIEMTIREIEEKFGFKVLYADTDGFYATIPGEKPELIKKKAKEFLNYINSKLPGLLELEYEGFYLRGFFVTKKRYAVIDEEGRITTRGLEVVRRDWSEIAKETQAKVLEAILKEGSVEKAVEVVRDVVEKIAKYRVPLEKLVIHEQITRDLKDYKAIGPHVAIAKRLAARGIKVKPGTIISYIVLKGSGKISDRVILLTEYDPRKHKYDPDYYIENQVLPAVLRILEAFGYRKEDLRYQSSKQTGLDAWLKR
The class given is biochemical. The settings on record: Vent (exo-)/A488L vs Vent (exo-); FIG. 6.

T1 sequence (Q56366 whole entry D141A/E143A/A485L): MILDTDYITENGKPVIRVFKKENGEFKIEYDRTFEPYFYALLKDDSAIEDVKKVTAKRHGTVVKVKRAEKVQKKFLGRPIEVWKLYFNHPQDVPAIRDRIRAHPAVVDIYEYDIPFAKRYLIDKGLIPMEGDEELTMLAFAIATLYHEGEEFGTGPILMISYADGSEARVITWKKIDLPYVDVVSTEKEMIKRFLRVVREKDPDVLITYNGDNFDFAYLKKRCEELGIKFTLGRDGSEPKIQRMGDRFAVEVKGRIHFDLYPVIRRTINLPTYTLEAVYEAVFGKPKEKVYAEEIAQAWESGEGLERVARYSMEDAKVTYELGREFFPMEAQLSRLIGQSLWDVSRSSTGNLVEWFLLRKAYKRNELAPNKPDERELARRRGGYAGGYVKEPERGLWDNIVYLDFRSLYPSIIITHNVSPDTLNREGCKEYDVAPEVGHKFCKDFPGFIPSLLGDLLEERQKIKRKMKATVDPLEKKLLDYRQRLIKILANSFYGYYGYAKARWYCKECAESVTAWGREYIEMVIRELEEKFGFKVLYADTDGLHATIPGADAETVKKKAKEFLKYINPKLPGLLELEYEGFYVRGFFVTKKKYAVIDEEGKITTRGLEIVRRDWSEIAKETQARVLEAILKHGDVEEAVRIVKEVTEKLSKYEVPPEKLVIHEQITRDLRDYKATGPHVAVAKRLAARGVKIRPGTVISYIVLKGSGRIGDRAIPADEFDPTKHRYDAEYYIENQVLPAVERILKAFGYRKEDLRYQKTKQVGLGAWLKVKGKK
Chain of herpes virus type 2 (HSV-2) DNA polymerase (P89453 whole entry): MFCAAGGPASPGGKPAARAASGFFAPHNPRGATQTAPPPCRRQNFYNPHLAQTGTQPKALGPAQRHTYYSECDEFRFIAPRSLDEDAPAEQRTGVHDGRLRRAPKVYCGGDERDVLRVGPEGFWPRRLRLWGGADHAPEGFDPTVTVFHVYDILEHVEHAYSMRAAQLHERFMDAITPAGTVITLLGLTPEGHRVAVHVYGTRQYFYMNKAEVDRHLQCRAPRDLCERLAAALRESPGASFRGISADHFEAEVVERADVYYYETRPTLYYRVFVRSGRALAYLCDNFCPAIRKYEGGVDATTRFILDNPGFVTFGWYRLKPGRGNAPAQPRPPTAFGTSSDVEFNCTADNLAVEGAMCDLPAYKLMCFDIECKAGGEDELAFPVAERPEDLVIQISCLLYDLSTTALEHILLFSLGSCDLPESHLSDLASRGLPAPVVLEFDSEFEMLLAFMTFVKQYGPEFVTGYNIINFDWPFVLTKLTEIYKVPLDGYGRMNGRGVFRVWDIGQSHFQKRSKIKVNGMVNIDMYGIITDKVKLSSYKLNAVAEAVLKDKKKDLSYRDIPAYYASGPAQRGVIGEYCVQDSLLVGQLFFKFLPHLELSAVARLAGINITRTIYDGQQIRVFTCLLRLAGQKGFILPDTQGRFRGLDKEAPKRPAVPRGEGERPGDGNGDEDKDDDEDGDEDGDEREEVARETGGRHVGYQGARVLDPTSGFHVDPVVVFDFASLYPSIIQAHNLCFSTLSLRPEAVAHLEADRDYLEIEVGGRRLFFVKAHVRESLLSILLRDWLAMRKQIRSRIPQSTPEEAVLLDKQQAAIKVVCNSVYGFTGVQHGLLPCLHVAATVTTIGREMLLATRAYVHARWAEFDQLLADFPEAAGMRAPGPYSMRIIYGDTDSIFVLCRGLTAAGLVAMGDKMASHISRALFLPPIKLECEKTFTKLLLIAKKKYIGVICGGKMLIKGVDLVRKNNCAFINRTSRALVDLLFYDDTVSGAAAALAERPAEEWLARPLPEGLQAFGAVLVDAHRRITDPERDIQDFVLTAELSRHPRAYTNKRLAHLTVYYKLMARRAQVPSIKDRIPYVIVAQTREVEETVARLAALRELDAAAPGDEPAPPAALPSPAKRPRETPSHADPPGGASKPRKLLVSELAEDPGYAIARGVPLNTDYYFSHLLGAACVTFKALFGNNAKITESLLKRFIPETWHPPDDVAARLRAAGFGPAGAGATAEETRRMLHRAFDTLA
Chain of human cytomegalovirus (HCMV) DNA polymerase (P08546 whole entry): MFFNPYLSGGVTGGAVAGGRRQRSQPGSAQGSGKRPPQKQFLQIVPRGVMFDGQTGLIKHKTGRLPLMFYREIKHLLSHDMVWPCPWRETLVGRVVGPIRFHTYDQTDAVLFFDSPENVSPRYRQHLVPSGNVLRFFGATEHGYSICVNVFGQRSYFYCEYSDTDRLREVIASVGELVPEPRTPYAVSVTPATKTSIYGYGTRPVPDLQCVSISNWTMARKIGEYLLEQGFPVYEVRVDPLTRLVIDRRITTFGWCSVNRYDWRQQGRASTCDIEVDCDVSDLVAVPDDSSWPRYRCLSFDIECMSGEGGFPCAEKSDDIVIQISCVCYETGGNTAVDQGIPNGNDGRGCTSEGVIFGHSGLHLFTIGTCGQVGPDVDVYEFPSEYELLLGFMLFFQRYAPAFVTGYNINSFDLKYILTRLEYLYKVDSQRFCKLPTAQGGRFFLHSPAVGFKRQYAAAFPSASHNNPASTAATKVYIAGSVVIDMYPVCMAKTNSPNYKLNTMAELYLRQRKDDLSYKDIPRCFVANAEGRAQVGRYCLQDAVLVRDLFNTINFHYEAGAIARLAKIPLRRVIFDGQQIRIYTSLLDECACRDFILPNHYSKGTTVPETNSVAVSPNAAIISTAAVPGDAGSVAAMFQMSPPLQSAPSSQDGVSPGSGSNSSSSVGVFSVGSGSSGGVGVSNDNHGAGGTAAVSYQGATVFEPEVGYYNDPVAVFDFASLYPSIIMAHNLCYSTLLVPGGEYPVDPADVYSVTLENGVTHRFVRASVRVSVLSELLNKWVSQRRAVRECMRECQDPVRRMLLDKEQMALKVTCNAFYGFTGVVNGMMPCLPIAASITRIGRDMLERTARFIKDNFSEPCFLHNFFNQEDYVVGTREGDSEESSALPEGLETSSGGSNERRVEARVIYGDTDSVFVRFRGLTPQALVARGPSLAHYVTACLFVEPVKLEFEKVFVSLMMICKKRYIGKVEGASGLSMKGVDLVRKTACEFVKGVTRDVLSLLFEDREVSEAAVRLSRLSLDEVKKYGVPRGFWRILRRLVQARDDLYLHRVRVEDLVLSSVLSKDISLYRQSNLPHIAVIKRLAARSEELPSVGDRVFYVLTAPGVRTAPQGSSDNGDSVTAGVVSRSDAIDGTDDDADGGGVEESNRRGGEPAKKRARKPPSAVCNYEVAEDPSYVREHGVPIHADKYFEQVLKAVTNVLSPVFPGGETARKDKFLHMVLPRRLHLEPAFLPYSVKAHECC

As for `Nc1nc2c(ncn2[C@H]2CC[C@@H](COP(=O)(O)OP(=O)(O)OP(=O)(O)O)O2)c(=O)[nH]1` [ddGTP], in assay [1], the “Preference for ddGTP over acyclo-GTP” value is ~27 fold. In addition, the “Preference for insertion, ddGTP versus acyclo-GTP” value in assay [2] was “strong preference”.
In the case of `Nc1nc2c(ncn2COCCOP(=O)(O)OP(=O)(O)OP(=O)(O)O)c(=O)[nH]1` [acyclo-GTP], the “Preference for acyclo-GTP over ddGTP” value in assay [3] (9°N (exo-)/A485L, FIG. 9) is given as “approximately 9 fold”. For the same molecule, the “Preference for insertion, acyclo-GTP versus ddGTP” value in assay [4] and in assay [5] was “preference for insertion of acyclo-GTP over ddGTP” each time.
With `Nc1ccn([C@H]2CC[C@@H](COP(=O)(O)OP(=O)(O)OP(=O)(O)O)O2)c(=O)n1` [ddCTP], the “Enhancement of incorporation, variant compared to parental enzyme” value is “about 10 fold” in assay [6] and “about 10 fold” in assay [3] (9°N (exo-)/A485L vs 9°N (exo-), FIG. 6).
